# Measured values from patent US11666572B2, “Treatment of HER2 positive cancers” (Seagen Inc., priority 2017, dated 2023).
# Read-outs that look alike come from different tables or passages of the source.
# Tests used:
# [1] = cited from earlier work
# [2] = system: Calu-3 NSCLC xenograft model; experiment: Calu-3 NSCLC xenograft model, tumor growth inhibition; type: in vivo, Mice; details: study day 28, tucatinib 50 mg/kg orally twice per day, trastuzumab 20 mg/kg IP once every three days, from study day 7
# Protocol: (§1) The term “tumor growth inhibition (TGI) index” refers to a value used to represent the degree to which an agent (e.g., tucatinib, an anti-HER2 antibody, or a combination thereof) inhibits the growth of a tumor when compared to an untreated control. The TGI index is calculated for a particular time point (e.g., a specific number of days into an experiment or clinical trial) according to the following formula:
# (§2) [formula] where “Tx Day 0” denotes the first day that treatment is administered (i.e., the first day that an experimental therapy or a control therapy (e.g., vehicle only) is administered) and “Tx Day X” denotes X number of days after Day 0.
# (§3) For the Calu-3 study, tucatinib was administered orally at a dose of 50 mg/kg twice per day for 21 days, beginning on study day 7. […] A vehicle-only group was included as a negative control.
# [3] = system: NCI-H2170 NSCLC xenograft model; experiment: NCI-H2170 NSCLC xenograft model, tumor growth inhibition; type: in vivo, Mice; details: study day 39, tucatinib 50 mg/kg orally twice per day, trastuzumab 20 mg/kg IP twice per week, from study day 18
# Protocol: as §1, §2, §3
# For the NCI-H2170 study, tucatinib was administered orally at a dose of 50 mg/kg twice per day for 21 days, beginning on study day 18. […] A vehicle-only group was included as a negative control.
# CTG-0121 CRC PDX model = experiment: CTG-0121 CRC PDX model, tumor growth inhibition; type: in vivo, Mice; details: study day 29, tucatinib 50 mg/kg orally twice per day, trastuzumab 20 mg/kg IP once every three days
# Protocol: as §1, §2
# (§4) Tucatinib was administered orally at a dose of 50 mg/kg twice per day for 28 days (study days 0-27). […] A vehicle-only group was included as a negative control.
# CTG-0784 CRC PDX model = experiment: CTG-0784 CRC PDX model, tumor growth inhibition; type: in vivo, Mice; details: study day 29, tucatinib 50 mg/kg orally twice per day, trastuzumab 20 mg/kg IP once every three days
# Protocol: as §1, §2, §4
# CTG-0383 CRC PDX model = experiment: CTG-0383 CRC PDX model, tumor growth inhibition; type: in vivo, Mice; details: study day 29, tucatinib 50 mg/kg orally twice per day, trastuzumab 20 mg/kg IP once every three days
# Protocol: as §1, §2, §4
# [4] = system: CTG-0137 esophageal cancer PDX model; experiment: CTG-0137 esophageal cancer PDX model, tumor growth inhibition; type: in vivo, Mice; details: study day 15, tucatinib 50 mg/kg orally twice per day, trastuzumab 20 mg/kg IP once every three days
# Protocol: as §1, §2, §4
# [5] = system: CTG-0138 esophageal cancer PDX model; experiment: CTG-0138 esophageal cancer PDX model, tumor growth inhibition; type: in vivo, Mice; details: study day 30, tucatinib 50 mg/kg orally twice per day, trastuzumab 20 mg/kg IP once every three days
# Protocol: as §1, §2, §4
# [6] = system: CTG-0927 HER2 positive cholangiocarcinoma PDX model; experiment: CTG-0927 cholangiocarcinoma PDX model, tumor growth inhibition; type: in vivo, Mice; details: study day 28, tucatinib 50 mg/kg orally twice per day, trastuzumab 20 mg/kg IP once every three days
# Protocol: as §1, §2, §4
# [7] = system: GXA 3038 gastric cancer PDX model; experiment: GXA 3038 gastric cancer PDX model, tumor growth inhibition; type: in vivo, Mice; details: study day 28, tucatinib 50 mg/kg orally twice per day, trastuzumab 20 mg/kg IP once every three days
# Protocol: as §1, §2, §4
# [8] = system: GXA 3039 gastric cancer PDX model; experiment: GXA 3039 gastric cancer PDX model, tumor growth inhibition; type: in vivo, Mice; details: study day 29, tucatinib 50 mg/kg orally twice per day, trastuzumab 20 mg/kg IP once every three days
# Protocol: as §1, §2, §4
# [9] = system: GXA 3054 gastric cancer PDX model; experiment: GXA 3054 gastric cancer PDX model, tumor growth inhibition; type: in vivo, Mice; details: study day 17, tucatinib 50 mg/kg orally twice per day, trastuzumab 20 mg/kg IP once every three days
# Protocol: as §1, §2, §4
# [10] = Clinical safety observations in patients; type: in vivo, human; details: patients on tucatinib studies
# Source text: Cardiac function is therefore monitored closely.
# Monitoring of liver function tests is required for any patient taking tucatinib.
# Patients with brain metastases are at risk for occurrence of AEs due to the presence of CNS lesions, progression of disease and toxicities potentially related to study treatment. On occasion, treatment of brain metastases with systemic or radiation therapy has been associated with localized edema thought to be due to treatment effect and not tumor progression. […] The patient's symptoms responded rapidly and completely to systemic corticosteroids. It was not known if this patient's symptoms were due to local progression or treatment-related toxicity. […] The patient was taken for surgical resection, and found to have no viable tumor. The resected lesion was thought to represent treatment-related necrosis.
# Calu-3 cells = experiment: Response of Calu-3 cells in vitro; type: cell-based; details: previously demonstrated
# NCI-H2170 cells = experiment: Response of NCI-H2170 cells in vitro; type: cell-based; details: previously demonstrated
# [11] = system: HER2 positive metastatic CRC (wild-type KRAS exon 2); details: HERACLES patients, previous treatment with cetuximab or panitumumab; cited from earlier work
# [12] = attributed to anti-EGFR/HER1 activity of the drug; cited from earlier work
# [13] = Table 10, strong inhibitors and inducer of CYP2C8
# [14] = Table 11, strong inhibitors or inducers of CYP3A4
compound,measurement,setting,value
COc1cc(Cc2cnc(N)nc2N)cc(OC)c1OC [Trimethoprim],Elimination Half-life,[1]; [13],8 to 10 h
CC[C@H]1OC(=O)[C@H](C)[C@@H](O[C@H]2C[C@@](C)(OC)[C@@H](O)[C@H](C)O2)[C@H](C)[C@@H](O[C@@H]2O[C@H](C)C[C@H](N(C)C)[C@H]2O)[C@](C)(O)C[C@@H](C)C(=O)[C@H](C)[C@@H](O)[C@]1(C)O [Erythromycin],Elimination Half-life,[1]; [14],2 h
"Cc1cc(Nc2ncnc3ccc(NC4=NC(C)(C)CO4)cc23)ccc1Oc1ccn2ncnc2c1 [Tucatinib, tucatinib]",Observed TGI (%),[2],63%
same,Observed TGI (%),[3],91%
same,Observed TGI (%),CTG-0121 CRC PDX model,104%
same,Observed TGI (%),CTG-0784 CRC PDX model,50%
same,Observed TGI (%),CTG-0383 CRC PDX model,117%
same,Observed TGI (%),[4],49%
same,Observed TGI (%),[5],69%
same,Observed TGI (%),[6],48%
same,Observed TGI (%),[7],110%
same,Observed TGI (%),[8],48%
same,Observed TGI (%),[9],65%
same,Elevation of liver function tests,[10],Grade 3 and 4 elevation of LFTs have been seen in some patients
same,Response in vitro,Calu-3 cells,good responses
same,Response in vitro,NCI-H2170 cells,good responses
CCc1nn(CCCN2CCN(c3cccc(Cl)c3)CC2)c(=O)n1CCOc1ccccc1 [Nefazodone],Elimination Half-life,[1]; [14],2 to 4 h
O=C1NC(=O)C(c2ccccc2)(c2ccccc2)N1 [Phenytoin],Elimination Half-life,[1]; [14],7 to 42 h
Cc1ccc(C)c(OCCCC(C)(C)C(=O)O)c1 [Gemfibrozil],Elimination Half-life,[1]; [13],1 to 2 h
NC(=O)N1c2ccccc2C=Cc2ccccc21 [Carbamazepine],Elimination Half-life,[1]; [14],25 to 65 h
panitumumab,ORR on previous treatment,[11],0%
O=c1c(O)c(-c2ccc(O)c(O)c2)oc2cc(O)cc(O)c12 [Quercetin],Elimination Half-life,[1]; [13],<2 h
CC[C@H]1OC(=O)[C@H](C)[C@@H](O[C@H]2C[C@@](C)(OC)[C@@H](O)[C@H](C)O2)[C@H](C)[C@@H](O[C@@H]2O[C@H](C)C[C@H](N(C)C)[C@H]2O)[C@](C)(OC)C[C@@H](C)C(=O)[C@H](C)[C@@H](O)[C@]1(C)O [Clarithromycin],Elimination Half-life,[1]; [14],3 to 7 h
"CC(=O)N1CCN(c2ccc(OCC3COC(Cn4ccnc4)(c4ccc(Cl)cc4Cl)O3)cc2)CC1 (stereo not drawn) [ketoconazole (systemic), ketoconazole]",Elimination Half-life,[1]; [14],2 to 8 h
C[C@@H](c1ncncc1F)[C@](O)(Cn1cncn1)c1ccc(F)cc1F [Voriconazole],Elimination Half-life (hours),[1]; [14],Dose dependent
CN(CCOc1ccc(CC2SC(=O)NC2=O)cc1)c1ccccn1 (stereo not drawn) [Rosiglitazone],Elimination Half-life,[1]; [13],16 to 24 h
CS(=O)(=O)CCNCc1ccc(-c2ccc3ncnc(Nc4ccc(OCc5cccc(F)c5)c(Cl)c4)c3c2)o1 [lapatinib],Toxicities,[12],"rash, diarrhea, and fatigue"
C#C[C@]1(O)CC[C@H]2[C@@H]3CCC4=Cc5oncc5C[C@]4(C)[C@H]3CC[C@@]21C [Danazol],Elimination Half-life,[1]; [14],24 to 26 h
CCc1ccc(CCOc2ccc(CC3SC(=O)NC3=O)cc2)nc1 (stereo not drawn) [Pioglitazone],Elimination Half-life,[1]; [13],3 to 7 h
CC(C)(O)c1ccccc1CC[C@@H](SCC1(CC(=O)O)CC1)c1cccc(/C=C/c2ccc3ccc(Cl)cc3n2)c1 [Montelukast],Elimination Half-life,[1]; [13],3 to 6 h (drug insert)
CCC(C)n1ncn(-c2ccc(N3CCN(c4ccc(OCC5COC(Cn6cncn6)(c6ccc(Cl)cc6Cl)O5)cc4)CC3)cc2)c1=O (stereo not drawn) [Itraconazole],Elimination Half-life,"[1]; Table 11, single dose",21 h
same,Elimination Half-life,"[1]; Table 11, steady state",64 h
CC[C@H]1OC(=O)[C@H](C)C(=O)[C@H](C)[C@@H](O[C@@H]2O[C@H](C)C[C@H](N(C)C)[C@H]2O)[C@](C)(OC)C[C@@H](C)C(=O)[C@H](C)[C@H]2N(CCCCn3cnc(-c4cccnc4)c3)C(=O)O[C@]12C [Telithromycin],Elimination Half-life,[1]; [14],10 h
